Source: ChEMBL document CHEMBL5528009, “Benzothiozinone derivatives with anti-tubercular Activity-Further side chain investigation” (Eur J Med Chem, 2024)
In brackets after ≈: the same amount, converted by molar mass. Activity calls are given as the source filed them. The rule behind the calls is not given here.

Legend:
[1] = system: Mycobacterium tuberculosis; assay: Antitubercular activity against Mycobacterium tuberculosis H37Rv (ATCC 25618) incubated for […] by MABA assay; assay type: functional
[2] = Metabolic stability in NADPH-fortified mouse liver microsomes assessed as CYP450-mediated stability incubated for 120 mins by LC/MS analysis; assay type: ADME, Microsome; conditions: 2 h
[3] = target: T1, Decaprenylphosphoryl-beta-D-ribose oxidase (Mycobacterium tuberculosis (strain ATCC 25618 / H37Rv)) (UniProt P9WJF1); assay: Time-dependent covalent inhibition of recombinant Mycobacterium tuberculosis DprE1 expressed in Escherichia coli by Amplex Red/peroxidase coupled assay
T1 sequence (whole entry): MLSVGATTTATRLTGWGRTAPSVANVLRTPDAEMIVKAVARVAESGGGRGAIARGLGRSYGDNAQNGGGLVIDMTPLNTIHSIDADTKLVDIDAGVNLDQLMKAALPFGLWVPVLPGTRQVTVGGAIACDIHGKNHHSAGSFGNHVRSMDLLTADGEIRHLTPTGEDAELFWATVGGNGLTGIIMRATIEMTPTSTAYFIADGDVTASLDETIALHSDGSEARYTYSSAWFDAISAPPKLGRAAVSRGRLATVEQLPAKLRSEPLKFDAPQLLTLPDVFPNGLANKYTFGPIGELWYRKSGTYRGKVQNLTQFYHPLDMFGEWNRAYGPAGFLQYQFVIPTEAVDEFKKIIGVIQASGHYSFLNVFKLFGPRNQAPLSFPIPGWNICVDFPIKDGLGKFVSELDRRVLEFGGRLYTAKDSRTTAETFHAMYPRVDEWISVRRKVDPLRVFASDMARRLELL

[4] = Metabolic stability in NADPH-fortified human liver microsomes assessed as CYP450-mediated stability incubated for 120 mins by LC/MS analysis; assay type: ADME, Microsome; conditions: 2 h
[5] = Drug concentration in ICR mouse plasma at 5 micromol/kg, iv measured after 5 mins by LC-MS/MS analysis; assay type: ADME, organism-based; conditions: dose 5 µmol/kg
[6] = MRT in ICR mouse at 5 micromol/kg, iv measured after 24 hrs by LC-MS/MS analysis; assay type: ADME, organism-based; conditions: in vivo, dose 5 µmol/kg
[7] = Volume of distribution at steady state in ICR mouse at 5 micromol/kg, iv measured after 24 hrs by LC-MS/MS analysis; assay type: ADME, organism-based; conditions: in vivo, dose 5 µmol/kg, read-out: Vdss
[8] = Cmax in ICR mouse at 25 micromol/kg, po measured after 24 hrs by LC-MS/MS analysis; assay type: ADME, organism-based; conditions: in vivo, dose 25 µmol/kg
[9] = Oral bioavailability in ICR mouse at 25 micromol/kg measured after 24 hrs by LC-MS/MS analysis; assay type: ADME, organism-based; conditions: in vivo, po, 24 h, at 25 µmol/kg
[10] = Tmax in ICR mouse at 25 micromol/kg, po measured after 24 hrs by LC-MS/MS analysis; assay type: ADME, organism-based; conditions: in vivo, dose 25 µmol/kg
[11] = AUC (0 to 24 hrs) in ICR mouse at 25 micromol/kg, po by LC-MS/MS analysis; assay type: ADME, organism-based; conditions: in vivo, po, dose 25 µmol/kg
[12] = AUC (0 to 8 hrs) in ICR mouse at 5 micromol/kg, iv by LC-MS/MS analysis; assay type: ADME, organism-based; conditions: in vivo, iv, dose 5 µmol/kg
[13] = Protein binding in mouse plasma assessed as unbound fraction incubated for 24 hrs by equilibrium dialysis based LC/MS analysis; assay type: ADME, cell-free
[14] = Aqueous solubility of the compound in PBS buffer at pH 6.82 incubated for 4 hrs by HPLC analysis; assay type: physicochemical
[15] = Elimination half life in ICR mouse at 25 micromol/kg, po measured after 24 hrs by LC-MS/MS analysis; assay type: ADME, organism-based; conditions: in vivo, dose 25 µmol/kg, read-out: beta t1/2 (converted)
[16] = Total plasma clearance in ICR mouse at 5 micromol/kg, iv measured after 24 hrs by LC-MS/MS analysis; assay type: ADME, organism-based; conditions: dose 5 µmol/kg
[17] = Elimination half life in ICR mouse at 5 micromol/kg, iv measured after 24 hrs by LC-MS/MS analysis; assay type: ADME, organism-based; conditions: in vivo, dose 5 µmol/kg, read-out: beta t1/2 (converted)
[18] = MRT in ICR mouse at 25 micromol/kg, po measured after 24 hrs by LC-MS/MS analysis; assay type: ADME, organism-based; conditions: in vivo, dose 25 µmol/kg

Compound	MIC [1] [µM]	other results
CN(C/C=C/C1CCCCC1)c1nc(=O)c2cc(C(F)(F)F)cc([N+](=O)[O-])c2s1	0.002 (≈ 0.000855 µg/mL)	
CN(CC#Cc1ccc2c(c1)OCO2)c1nc(=O)c2cc(C(F)(F)F)cc([N+](=O)[O-])c2s1	0.145 (≈ 0.0672 µg/mL)	
CN(C)CCc1ccc(C#CCN(C)c2nc(=O)c3cc(C(F)(F)F)cc([N+](=O)[O-])c3s2)cc1	1.01 (≈ 0.495 µg/mL)	
CN(CC#CC(C)(C)C)c1nc(=O)c2cc(C(F)(F)F)cc([N+](=O)[O-])c2s1	0.023 (≈ 0.00919 µg/mL)	
CN(C/C=C\C1CCCCC1)c1nc(=O)c2cc(C(F)(F)F)cc([N+](=O)[O-])c2s1	0.009 (≈ 0.00385 µg/mL)	
CN(CC#Cc1cccs1)c1nc(=O)c2cc(C(F)(F)F)cc([N+](=O)[O-])c2s1	0.014 (≈ 0.00596 µg/mL)	Stability [2]: Stable; TDI [3]: Active; Stability [4]: Stable
CN(CC#Cc1cccc(C#N)c1)c1nc(=O)c2cc(C(F)(F)F)cc([N+](=O)[O-])c2s1	0.029 (≈ 0.0129 µg/mL)	
CN(CC#CCN1CCSC1)c1nc(=O)c2cc(C(F)(F)F)cc([N+](=O)[O-])c2s1	0.029 (≈ 0.0129 µg/mL)	
C#CCN(C)c1nc(=O)c2cc(C(F)(F)F)cc([N+](=O)[O-])c2s1	1.4 (≈ 0.479 µg/mL)	
CN(C/C=C\C1CCCC1)c1nc(=O)c2cc(C(F)(F)F)cc([N+](=O)[O-])c2s1	0.01 (≈ 0.00413 µg/mL)	
CN(C)Cc1ccc(C#CCN(C)c2nc(=O)c3cc(C(F)(F)F)cc([N+](=O)[O-])c3s2)cc1	0.47 (≈ 0.224 µg/mL)	
CN(Cc1cn(-c2ccccc2)nn1)c1nc(=O)c2cc(S(C)(=O)=O)cc([N+](=O)[O-])c2s1	0.047 (≈ 0.0222 µg/mL)	
CN(CC#Cc1ccsc1)c1nc(=O)c2cc(C(F)(F)F)cc([N+](=O)[O-])c2s1	0.014 (≈ 0.00596 µg/mL)	Stability [2]: Stable; Stability [4]: Stable
O=c1nc(N2CCN(CC3CCCCC3)CC2)sc2c([N+](=O)[O-])cc(C(F)(F)F)cc12 [MACOZINONE]	< 0.0004	concentration at 5 min [5]: 1390 nM; MRT [6]: 1.42 h; Vd [7]: 5.61 L/kg; Cmax [8]: 472 nM; F [9]: 0.65%; Tmax [10]: 0.38 h; AUC [11]: 0.80339 µM·h; AUC [12]: 1.18766 µM·h; Fu [13]: 0.46%; solubility at 4 h [14]: 0.01 µg/mL (≈ 0.0219 µM); half-life [15]: 1.48 h; clearance [16]: 65.5 mL/min/kg; half-life [17]: 0.95 h; MRT [18]: 2.44 h
CN(C/C=C/c1ccccc1)c1nc(=O)c2cc(C(F)(F)F)cc([N+](=O)[O-])c2s1	0.024 (≈ 0.0101 µg/mL)	TDI [3]: Active
CN(C/C=C\c1ccccc1)c1nc(=O)c2cc(C(F)(F)F)cc([N+](=O)[O-])c2s1	0.045 (≈ 0.019 µg/mL)	TDI [3]: Active
CN(CC#Cc1cnsc1)c1nc(=O)c2cc(C(F)(F)F)cc([N+](=O)[O-])c2s1	0.03 (≈ 0.0128 µg/mL)	
CN(CC#Cc1ccccc1F)c1nc(=O)c2cc(C(F)(F)F)cc([N+](=O)[O-])c2s1	0.011 (≈ 0.00481 µg/mL)	
CN(CC#CCN1CCSCC1)c1nc(=O)c2cc(C(F)(F)F)cc([N+](=O)[O-])c2s1	0.028 (≈ 0.0128 µg/mL)	
CN(CC#CC1CCCC1)c1nc(=O)c2cc(C(F)(F)F)cc([N+](=O)[O-])c2s1	0.005 (≈ 0.00206 µg/mL)	
CN(CC#Cc1ccc(F)cc1F)c1nc(=O)c2cc(C(F)(F)F)cc([N+](=O)[O-])c2s1	0.007 (≈ 0.00319 µg/mL)	
